In US20240382600A1, “BIFUNCTIONAL DEGRADERS COMPRISING A TEAD BINDER” (Novartis AG, priority 2021, published 2024):

Columns and labels:
[1] = test system: SF268-MCAT_Luc_dox-i-shYAPLevy (Clone 13) cells; assay: Proliferation assay (resazurin/AlamarBlue), SF268; type: cell-based; conditions: SF268, 72 hours
Description: (§1) NCI-H2052 mesothelioma cells (RRID: CVCL_1518) bearing Hippo-pathway inactivating mutations upstream of YAP (homozygous deletion of LATS2 and mutation of NF2) were obtained from ATCC (American Type Culture Collection), while SF268 glioma cells (RRID: CVCL_1689) overexpressing YAP due to genomic amplification were obtained from the NCI (National Cancer Institute). MKN-45 gastric adenocarcinoma cells (RRID: CVCL_0434) genomically deleted for YAP were obtained from the JCRB (Japanese Collection of Research Bioresources) Cell Bank.
(§2) Stock solutions of compounds were prepared at a concentration of 10 mM in DMSO and stored at 4° C. Where necessary to afford a full dose-response curve, the stock solutions were pre-diluted in DMSO to 1′000-fold the desired reduced start concentration. On the day after cell seeding, eleven 2-fold serial dilutions of each compound were dispensed directly into the cell assay plates using a HP 300D non-contact Digital Dispenser (TECAN). The final concentration of DMSO was normalized to 0.1% in all wells.
(§3) After incubation for 72 hours at 37° C., compound-mediated modulation of cell viability was quantified as follows. […] To enable differentiation of cytotoxic from cytostatic compound effects, the number of viable cells on the day of compound addition (day 0) was assessed in a separate cell plate and used to assess the extent of cell viability suppression as described in the following section.
(§4) For data analysis, the assay background value determined in wells containing medium, but no cells, was subtracted from all data points.
(§5) The extent of growth inhibition and potential cell kill was assessed by comparing the resorufin levels in compound-treated cells with those present at the time of compound addition. To this end, the following conditional concept was programmatically applied in HELIOS to calculate % growth (% G) for each compound-treated well: % G=(T−V0)/V0))*100 when T<V0, and % G=(T−V0)/(V−V0)))*100 when T≥V0, where V0 is the viability level at time of compound addition, while V and T represent vehicle-control and compound-treated viability levels, respectively, at the end of the compound incubation. 100%, 0% and −100% signify absence of growth inhibition, growth stasis, and complete cell kill, respectively. Compound concentrations leading to half-maximal growth inhibition (GI50) and residual cell viability at the highest tested compound concentration (Data(cmax), expressed in percent) were routinely calculated.

[2] = test system: NCI-H2052 Tet-On shYAP_2371 pLenti6 MCAT_Luc cells; assay: Proliferation assay (resazurin/AlamarBlue), NCI-H2052; type: cell-based; conditions: NCI-H2052, 72 hours
Description: as §1, §2, §3, §4, §5

[3] = test system: MKN-45/Ubc-luc cells; assay: Proliferation assay (resazurin/AlamarBlue), MKN-45; type: cell-based; conditions: MKN-45, 72 hours
Description: as §1
As a specificity control, MKN-45 cells were stably transduced with a Ubc-Luc reporter construct, in which constitutive expression of firefly luciferase is driven by the promoter of the ubiquitin C housekeeping gene.
as §2, §3, §4, §5

[4] = test system: MKN-45/Ubc-luc cells (unspecific inhibition of luciferase expression or activity); assay: Reporter gene assay specificity control (Ubc-Luc), MKN-45; type: cell-based; conditions: MKN-45/Ubc-luc specificity control, 24 hrs
Description: as §1
As a specificity control, MKN-45 cells were stably transduced with a Ubc-Luc reporter construct, in which constitutive expression of firefly luciferase is driven by the promoter of the ubiquitin C housekeeping gene. The resulting cell line, MKN-45/Ubc-luc, was selected and maintained in growth medium (RPMI 1640 (Amimed Cat #1-41F01-I), 2 mM L-Glutamine (Amimed Cat #5-10K50-H), 10% fetal calf serum (Amimed Cat #2-01F30-I Lot K08815P), 1% MEM Non-essential amino acids (Amimed Cat #5-13K00-H), 1× Penicillin/Streptomycin (Amimed Cat #4-01F00-H)) containing 1 μg/ml blasticidin (Gibco Cat #A11139-03).
as §2
The ability of compounds to inhibit YAP-dependent transcription was assessed in NCI-H2052 Tet-On shYAP_2371 pLenti6 MCAT_Luc and SF268-MCAT_Luc, dox-i-shYAPLevy (Clone 13) cells, while specificity (lack of unspecific inhibition of luciferase expression or activity) was assessed in MKN-45/Ubc-luc cells. The individual cell lines were seeded at 2′500 cells/20 μl/well into white-wall, clear-bottom 384-well plates (Greiner, Cat #781098) and incubated over night at 37° C. prior to addition of serial compound dilutions as described above. Following incubation for 24 hrs at 37° C., compound-mediated modulation of reporter-gene activity was quantified 5 min after addition 20 μL […] BrightGlo (Promega Cat #E2620), by measuring luminescence intensity on a multi-mode plate-reader (TECAN) with an integration time of 100 ms.
as §4

[5] = biological target: Avi-humanTEAD4^217-434 / Cy5 labeled humanYAP^60-100 (Homo sapiens (Human), UniProt Q15561); assay: In-vitro biochemical TR-FRET assay (TEAD4/YAP); type: binding; conditions: 1 h at room temperature
Experimental: N-terminus Cy5 labeled humanYAP^60-100 (20 nM) was then added to this preparation. Compounds were dissolved at 10 mM in 100% DMSO and serial dilutions were made in 100% DMSO. The diluted compound solutions were incubated in white 384-well plates (Greiner Bio-One) for 1 h at room temperature with the above described mix. The final DMSO concentration present in the assay was 1%. […] The IC50 values were estimated by fitting the data by nonlinear fit regression (GraphPad Prism).

[6] = test system: YAP-dependent transcription in NCI-H2052 Tet-On shYAP_2371 pLenti6 MCAT_Luc cells; assay: YAP reporter gene activity assay (MCAT-Luc), NCI-H2052; type: cell-based; conditions: 24 hrs
[7] = test system: YAP-dependent transcription in SF268-MCAT_Luc_dox-i-shYAPLevy (Clone 13) cells; assay: YAP reporter gene activity assay (MCAT-Luc), SF268; type: cell-based; conditions: SF268 MCAT_Luc, 24 hrs

Chain of Avi-humanTEAD4^217-434 / Cy5 labeled humanYAP^60-100 (Q15561 217-434): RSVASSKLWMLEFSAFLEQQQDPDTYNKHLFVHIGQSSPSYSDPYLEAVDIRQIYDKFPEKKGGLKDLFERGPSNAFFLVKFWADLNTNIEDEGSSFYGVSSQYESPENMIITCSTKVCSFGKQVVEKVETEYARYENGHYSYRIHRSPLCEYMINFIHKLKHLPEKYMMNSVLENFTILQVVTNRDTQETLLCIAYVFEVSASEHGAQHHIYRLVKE

| GI50 ([2]; Homo sapiens) [nM] | GI50 ([3]; Homo sapiens) [µM] | IC50 ([4]; Homo sapiens) [µM] | IC50 [5] [nM] | IC50 ([6]; Homo sapiens) [nM] | IC50 ([7]; Homo sapiens, SF-268) [nM] | GI50 [2] [nM] | GI50 [3] [µM] | IC50 [4] [µM] | IC50 [6] [nM] | IC50 [7] [nM] | SMILES | GI50 ([1]; Homo sapiens, SF-268) [nM] | GI50 [1] [nM] |
| --- | --- | --- | --- | --- | --- | --- | --- | --- | --- | --- | --- | --- | --- |
| 2270 | > 20 | > 20 | 6.9 | 2800 | 3530 | – | – | – | – | – | CNC(=O)c1cnc(OCCOCCOCCn2cc(-c3cccc(N4CCC(=O)NC4=O)c3)nn2)c(F)c1-c1c(Cl)c(F)cc2c1C[C@](c1ccccc1)([C@@H]1CCCN1)O2 (atropisomer, axis not shown) [Example 34, 4-((2S,4S)-5-chloro-6-fluoro-2-phenyl-2-((S)-pyrrolidin-2-yl)-2,3-dihydrobenzofuran-4-yl)-6-(2-(2-(2-(4-(3-(2,4-dioxotetrahydropyrimidin-1(2H)-yl)phenyl)-1H-1,2,3-triazol-1-yl)ethoxy)ethoxy)ethoxy)-5-fluoro-N-methylnicotinamide] | 19300 | – |
| 31 | > 0.2 | > 2 | 19 | 4.2 | 0.45 | – | – | – | – | – | COc1ccc(C(N)=O)c(-c2c(Cl)c(F)cc3c2[C@H](C)[C@@](CN[C@H]2CC[C@H](C(=O)N4CCC(CC5CCN(C(=O)COc6cc(-c7scnc7C)ccc6CNC(=O)[C@@H]6C[C@@H](O)CN6C(=O)[C@@H](NC(=O)C6(F)CC6)C(C)(C)C)CC5)CC4)CC2)(c2ccccc2)O3)c1F (atropisomer, axis not shown) [Example 42, (2S,4R)-N-(2-(2-(4-((1-((1S,4r)-4-((((2S,3S,4S)-4-(6-carbamoyl-2-fluoro-3-methoxyphenyl)-5-chloro-6-fluoro-3-methyl-2-phenyl-2,3-dihydrobenzofuran-2-yl)methyl)amino)cyclohexane-1-carbonyl)piperidin-4-yl)methyl)piperidin-1-yl)-2-oxoethoxy)-4-(4-methylthiazol-5-yl)benzyl)-1-((S)-2-(1-fluorocyclopropane-1-carboxamido)-3,3-dimethylbutanoyl)-4-hydroxypyrrolidine-2-carboxamide] | 31 | – |
| 73 | > 0.2 | > 2 | 8.7 | 17 | 2.3 | – | – | – | – | – | COc1ccc(C(N)=O)c(-c2c(Cl)c(F)cc3c2[C@H](C)[C@@](CN[C@H]2CC[C@H](C(=O)N4CCC(C5CCN(C(=O)COc6cc(-c7scnc7C)ccc6CNC(=O)[C@@H]6C[C@@H](O)CN6C(=O)[C@@H](NC(=O)C6(F)CC6)C(C)(C)C)CC5)CC4)CC2)(c2ccccc2)O3)c1F (atropisomer, axis not shown) [Example 43, (2S,4R)-N-(2-(2-(1′-((1S,4r)-4-((((2S,3S,4S)-4-(6-carbamoyl-2-fluoro-3-methoxyphenyl)-5-chloro-6-fluoro-3-methyl-2-phenyl-2,3-dihydrobenzofuran-2-yl)methyl)amino)cyclohexane-1-carbonyl)-[4,4′-bipiperidin]-1-yl)-2-oxoethoxy)-4-(4-methylthiazol-5-yl)benzyl)-1-((S)-2-(1-fluorocyclopropane-1-carboxamido)-3,3-dimethylbutanoyl)-4-hydroxypyrrolidine-2-carboxamide] | 68 | – |
| – | – | – | 1.9 | – | – | 27 | 4.11 | 14.3 | 40 | 33 | COc1ccc(C(N)=O)c(-c2c(Cl)c(F)cc3c2[C@H](C)[C@@](CN[C@H]2CC[C@H](C(=O)OC)CC2)(c2ccccc2)O3)c1F [C-I-k, Methyl (1S,4r)-4-((((2S,3S,4S)-4-(6-carbamoyl-2-fluoro-3-methoxyphenyl)-5-chloro-6-fluoro-3-methyl-2-phenyl-2,3-dihydrobenzofuran-2-yl)methyl)amino)cyclohexane-1-carboxylate] | – | 390 |
| 6290 | > 20 | > 20 | 23 | 5900 | 2750 | – | – | – | – | – | CNC(=O)c1cnc(OCCOCCn2cc(-c3ccc4c(c3)CN(C3CCC(=O)NC3=O)C4=O)nn2)c(F)c1-c1c(Cl)c(F)cc2c1C[C@](c1ccccc1)([C@@H]1CCCN1)O2 (stereo partly drawn) [Example 32, 4-((2S,4S)-5-Chloro-6-fluoro-2-phenyl-2-((S)-pyrrolidin-2-yl)-2,3-dihydrobenzofuran-4-yl)-6-(2-(2-(4-(2-(2,6-dioxopiperidin-3-yl)-1-oxoisoindolin-5-yl)-1H-1,2,3-triazol-1-yl)ethoxy)ethoxy)-5-fluoro-N-methylnicotinamide] | > 20000 | – |
| 4400 | > 20 | > 20 | 94 | 3140 | 1340 | – | – | – | – | – | CNC(=O)c1cnc(OCCOCCOCCn2cc(-c3ccc4c(c3)CN(C3CCC(=O)NC3=O)C4=O)nn2)c(F)c1-c1c(Cl)c(F)cc2c1C[C@](c1ccccc1)([C@@H]1CCCN1)O2 (stereo partly drawn) [Example 33, 4-((2S,4S)-5-chloro-6-fluoro-2-phenyl-2-((S)-pyrrolidin-2-yl)-2,3-dihydrobenzofuran-4-yl)-6-(2-(2-(2-(4-(2-(2,6-dioxopiperidin-3-yl)-1-oxoisoindolin-5-yl)-1H-1,2,3-triazol-1-yl)ethoxy)ethoxy)ethoxy)-5-fluoro-N-methylnicotinamide] | > 20000 | – |
| 35 | 0.033 | 0.044 | 7.2 | 32 | 23 | – | – | – | – | – | COc1ccc(C(N)=O)c(-c2c(Cl)c(F)cc3c2[C@H](C)[C@@](CNCCCCCc2cccc4c2CN(C2CCC(=O)NC2=O)C4=O)(c2ccccc2)O3)c1F (stereo partly drawn) [Example 35, 2-((2S,3S,4S)-5-chloro-2-(((5-(2-(2,6-dioxopiperidin-3-yl)-1-oxoisoindolin-4-yl)pentyl)amino)methyl)-6-fluoro-3-methyl-2-phenyl-2,3-dihydrobenzofuran-4-yl)-3-fluoro-4-methoxybenzamide] | < 20 | – |
| 160 | 8.76 | 8.76 | 92 | 24 | 9.3 | – | – | – | – | – | COc1ccc(C(=O)NCCCCCc2cccc3c2CN(C2CCC(=O)NC2=O)C3=O)c(-c2c(Cl)c(F)cc3c2C[C@@](CN)(c2ccccc2)O3)c1F (stereo partly drawn) [Example 36, 2-((2S,4S)-2-(aminomethyl)-5-chloro-6-fluoro-2-phenyl-2,3-dihydrobenzofuran-4-yl)-N-(5-(2-(2,6-dioxopiperidin-3-yl)-1-oxoisoindolin-4-yl)pentyl)-3-fluoro-4-methoxybenzamide] | 8420 | – |
